Active and inactive are the calls of the source. No cut-off for these calls is given here.

Activity and Ki data for four compounds are collected here from ChEMBL document CHEMBL1139284, “Synthesis and evaluation of novel photoreactive alpha-amino acid analog carrying acidic and cleavable functions” (Bioorg Med Chem Lett, 2009).

Assay [1] has as its target Glutamyl endopeptidase (Staphylococcus aureus) (UniProt P0C1U8). Put plainly: Binding affinity to Staphylococcus aureus V8 glutamyl endopeptidase after 40 mins of UV irradiation by photoaffinity labeling assay.
The target of another assay is Glutamyl endopeptidase (Staphylococcus aureus, UniProt P0C1U8). In words: Binding affinity to Staphylococcus aureus V8 glutamyl endopeptidase. As to conditions: read-out: Ki(app).
Chain of Glutamyl endopeptidase (P0C1U8 whole entry): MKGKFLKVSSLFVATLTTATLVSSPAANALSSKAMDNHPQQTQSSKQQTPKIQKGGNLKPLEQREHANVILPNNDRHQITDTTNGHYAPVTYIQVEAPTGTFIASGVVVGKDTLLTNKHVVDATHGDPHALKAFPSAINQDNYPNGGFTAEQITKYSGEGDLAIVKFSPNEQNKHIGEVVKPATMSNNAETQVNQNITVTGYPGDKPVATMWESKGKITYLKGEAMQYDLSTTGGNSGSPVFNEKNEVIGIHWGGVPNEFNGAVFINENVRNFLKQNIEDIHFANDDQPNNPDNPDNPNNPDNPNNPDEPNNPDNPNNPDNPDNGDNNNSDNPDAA

Chain of Glutamyl endopeptidase (Staphylococcus aureus) (P0C1U8 whole entry): as above

Turning to `CC(C)(C)OC(=O)N[C@@H](CCC(=O)O)C(N)=O`, in assay [1], the result was Active. On the same count and under the same terms, as for `CC(C)(C)OC(=O)N[C@@H](CCC(=O)OCc1ccccc1)C(N)=O`, the entry is “inactive”. Regarding `CC(C)(C)OC(=O)N[C@@H](CS(=O)(=O)NC(=O)c1ccc(C2(C(F)(F)F)N=N2)cc1)C(=O)NCCOCCOCCNC(=O)CCCC[C@@H]1SCC2NC(=O)NC21` (some centres undefined), at Glutamyl endopeptidase, the Ki is 162 µM. As to `CC(C)(C)OC(=O)N[C@@H](CS(=O)(=O)NC(=O)c1ccccc1)C(N)=O`, the outcome in assay [1] was Active.
